Laboratory results: patent publication US7977374B2, “Thiophene and thiazole substituted trifluoroethanone derivatives as histone deacetylase (HDAC) inhibitors” (Istituto Di Ricerche Di Biologia Molecolare P. Angeletti SPA, priority 2005, dated 2011)
Like-named read-outs stand apart in the source and are kept apart here.

Columns and labels:
Format in all cases: biochemical
HDAC 1 = HDAC 1 (Homo sapiens, UniProt Q13547); assay: HDAC1 activity, assays described on pages 104 to 106 of WO 2006/061638
HDAC 4 = target: T1, HDAC 4 (Homo sapiens, UniProt P56524); assay: HDAC 4 Assay
T1 construct: The His-tagged HDAC 4, wild-type catalytic domain, was expressed in E. coli; His tag; made in house; host or cells: E. coli BL21 Star (DE3)

HDAC 6 = target: T2, HDAC 6 (Homo sapiens, UniProt Q9UBN7); assay: HDAC 6 Assay
T2 construct: made in house
T2 sequence (Q9UBN7 1-1215): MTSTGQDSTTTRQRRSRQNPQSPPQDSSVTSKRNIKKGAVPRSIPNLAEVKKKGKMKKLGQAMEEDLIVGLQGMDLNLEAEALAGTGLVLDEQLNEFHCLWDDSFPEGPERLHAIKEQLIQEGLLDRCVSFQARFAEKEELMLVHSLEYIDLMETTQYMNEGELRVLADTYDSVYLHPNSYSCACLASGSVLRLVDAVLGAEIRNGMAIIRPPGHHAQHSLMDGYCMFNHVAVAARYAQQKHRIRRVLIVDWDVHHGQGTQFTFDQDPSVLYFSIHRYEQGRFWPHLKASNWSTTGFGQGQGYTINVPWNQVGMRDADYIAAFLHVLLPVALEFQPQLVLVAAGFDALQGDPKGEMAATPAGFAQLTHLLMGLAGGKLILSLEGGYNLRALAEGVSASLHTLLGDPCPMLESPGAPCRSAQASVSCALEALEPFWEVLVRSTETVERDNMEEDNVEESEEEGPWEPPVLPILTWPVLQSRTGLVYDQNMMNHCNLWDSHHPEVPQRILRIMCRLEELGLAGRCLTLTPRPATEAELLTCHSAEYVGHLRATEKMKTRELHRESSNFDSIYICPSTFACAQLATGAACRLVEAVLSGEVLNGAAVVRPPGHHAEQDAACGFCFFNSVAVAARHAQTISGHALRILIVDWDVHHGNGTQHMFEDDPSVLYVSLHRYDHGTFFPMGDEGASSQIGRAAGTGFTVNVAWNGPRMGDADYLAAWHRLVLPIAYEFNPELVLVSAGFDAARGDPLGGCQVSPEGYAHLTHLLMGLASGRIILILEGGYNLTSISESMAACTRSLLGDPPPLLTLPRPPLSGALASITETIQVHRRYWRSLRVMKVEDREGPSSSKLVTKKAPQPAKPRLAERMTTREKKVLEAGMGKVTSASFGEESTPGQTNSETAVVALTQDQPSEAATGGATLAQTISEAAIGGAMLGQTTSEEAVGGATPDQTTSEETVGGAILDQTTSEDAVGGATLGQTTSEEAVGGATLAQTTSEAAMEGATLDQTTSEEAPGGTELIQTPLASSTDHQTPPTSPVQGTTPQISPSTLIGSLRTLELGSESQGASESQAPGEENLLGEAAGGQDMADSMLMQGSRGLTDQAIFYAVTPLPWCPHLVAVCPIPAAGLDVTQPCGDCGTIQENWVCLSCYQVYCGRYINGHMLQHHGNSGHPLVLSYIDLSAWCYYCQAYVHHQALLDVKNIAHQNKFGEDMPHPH

T1 sequence (P56524 655-1084 limits assumed): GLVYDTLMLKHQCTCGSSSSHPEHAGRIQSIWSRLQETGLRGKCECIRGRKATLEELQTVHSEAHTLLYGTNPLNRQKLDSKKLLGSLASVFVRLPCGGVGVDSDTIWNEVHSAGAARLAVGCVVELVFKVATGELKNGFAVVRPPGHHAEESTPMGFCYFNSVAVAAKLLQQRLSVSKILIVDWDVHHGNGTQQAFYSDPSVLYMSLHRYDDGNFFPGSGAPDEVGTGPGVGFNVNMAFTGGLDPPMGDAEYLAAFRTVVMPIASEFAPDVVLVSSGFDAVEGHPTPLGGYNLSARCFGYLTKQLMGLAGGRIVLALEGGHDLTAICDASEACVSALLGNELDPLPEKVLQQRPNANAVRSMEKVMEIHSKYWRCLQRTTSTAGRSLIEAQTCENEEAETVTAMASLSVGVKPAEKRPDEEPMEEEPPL
Sequence of HDAC 1 (Q13547 whole entry): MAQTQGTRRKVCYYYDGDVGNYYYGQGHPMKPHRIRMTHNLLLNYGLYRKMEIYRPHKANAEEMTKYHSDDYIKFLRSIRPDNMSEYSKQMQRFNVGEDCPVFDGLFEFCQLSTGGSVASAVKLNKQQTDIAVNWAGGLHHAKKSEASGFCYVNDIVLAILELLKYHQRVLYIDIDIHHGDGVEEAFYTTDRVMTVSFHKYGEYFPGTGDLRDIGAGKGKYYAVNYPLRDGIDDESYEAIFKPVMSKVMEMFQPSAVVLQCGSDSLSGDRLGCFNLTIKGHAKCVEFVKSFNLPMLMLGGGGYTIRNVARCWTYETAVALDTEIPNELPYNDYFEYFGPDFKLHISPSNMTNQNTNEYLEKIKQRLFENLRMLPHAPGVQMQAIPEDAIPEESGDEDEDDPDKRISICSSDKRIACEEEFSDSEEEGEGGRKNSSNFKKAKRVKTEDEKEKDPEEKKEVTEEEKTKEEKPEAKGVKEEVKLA

| IC50 (HDAC 1) | IC50 (HDAC 4; not active up to the stated concentration, read-out: HDAC 4 IC50, Not active up to) | inhibition at 0.001 µM (HDAC 6; @ 1 nM, read-out: HDAC 6 % inh.) | IC50 (HDAC 4; read-out: HDAC 4 IC50) | IC50 (HDAC 6) | inhibition at 1 µM (HDAC 4; @ 1000 nM, read-out: HDAC 4 % inh.) | Structure (SMILES) | selectivity for Class II HDAC (HDAC 4 and 6) over Class I (HDAC 1) (HDAC 4; HDAC 4 and 6 versus HDAC 1) |
| --- | --- | --- | --- | --- | --- | --- | --- |
| 6 nM | > 1000 nM | 50% |  |  |  | C[C@@H](NC(=O)c1ccc(C(=O)NO)s1)c1ccccc1 [N-hydroxy-N′-[(1R)-1-phenytethyl]thiophene-2,5-dicarboxamide] |  |
| 710 nM |  |  | 95 nM | 350 nM |  | C[C@@H](NC(=O)c1ccc(C(=O)C(F)(F)F)s1)c1ccccc1 [Example 8, N-[(1R)-1-phenylethyl]-5-(trifluoroacetyl)thiophene-2-carboxamide] | showed selectivity for Class II HDAC (HDAC 4 and 6) over Class I (HDAC 1) |
|  |  |  |  |  | 42% | CC(/C=C/C(=O)NO)=C\[C@@H](C)C(=O)c1ccc(N(C)C)cc1 [TSA, trichostatin A] |  |
